Reference: article PMC8050608 (The Korean Journal of Physiology & Pharmacology : …, 2021)
Like-named read-outs stand apart in the source and are kept apart here.

Key:
ORAI1 [1] = target: T1, ORAI1 (Homo sapiens, UniProt Q96D31); format: cell-based; conditions: HEK-293T, read-out: % inhibition at 100 μM
ORAI1 [2] = target: T1, ORAI1; format: cell-based; conditions: HEK-293T, read-out: % inhibition at 100 μM; remark: listed apart in the source

T1 sequence (Q13586 23-685): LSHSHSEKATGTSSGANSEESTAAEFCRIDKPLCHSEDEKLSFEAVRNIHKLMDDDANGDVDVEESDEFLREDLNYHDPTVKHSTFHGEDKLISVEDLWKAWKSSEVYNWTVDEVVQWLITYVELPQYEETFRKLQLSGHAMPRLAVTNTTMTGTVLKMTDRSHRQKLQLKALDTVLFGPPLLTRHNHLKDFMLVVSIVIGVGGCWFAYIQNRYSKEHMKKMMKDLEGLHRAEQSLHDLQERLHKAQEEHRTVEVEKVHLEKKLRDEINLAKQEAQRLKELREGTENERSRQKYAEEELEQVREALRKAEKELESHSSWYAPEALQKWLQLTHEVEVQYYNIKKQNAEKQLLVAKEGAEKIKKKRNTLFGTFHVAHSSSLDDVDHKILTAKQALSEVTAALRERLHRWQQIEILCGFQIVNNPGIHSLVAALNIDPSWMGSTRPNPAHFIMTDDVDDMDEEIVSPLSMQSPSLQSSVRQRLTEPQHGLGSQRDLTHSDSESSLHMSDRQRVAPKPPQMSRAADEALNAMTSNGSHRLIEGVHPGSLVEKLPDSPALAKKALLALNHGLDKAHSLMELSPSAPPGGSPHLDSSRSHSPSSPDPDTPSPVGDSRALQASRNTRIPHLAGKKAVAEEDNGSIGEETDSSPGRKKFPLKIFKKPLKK
T1 sequence (Q96D31 whole entry): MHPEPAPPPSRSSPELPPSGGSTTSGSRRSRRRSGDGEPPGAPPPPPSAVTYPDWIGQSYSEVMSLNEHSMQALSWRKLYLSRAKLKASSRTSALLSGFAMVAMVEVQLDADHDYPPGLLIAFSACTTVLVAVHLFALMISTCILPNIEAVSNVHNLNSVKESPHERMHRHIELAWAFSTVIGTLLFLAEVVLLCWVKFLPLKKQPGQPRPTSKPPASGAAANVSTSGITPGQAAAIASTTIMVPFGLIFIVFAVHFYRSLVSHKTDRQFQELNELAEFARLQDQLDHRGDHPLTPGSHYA

inhibition at 100 µM (ORAI1 [1]) [%] | inhibition at 100 µM (ORAI1 [2]) [%] | Structure (SMILES)
24.7 | – | COc1ccc([C@H]2OC[C@H]3[C@@H]2CO[C@@H]3c2ccc(OC)c(OC)c2)cc1OC [eudesmin]
– | 29.7 | COc1ccc([C@H]2OC[C@H]3[C@@H]2CO[C@@H]3c2cc(OC)c(OC)c(OC)c2)cc1OC [magnolin]
